According to US8377884B2, “Variants of C-type natriuretic peptides” (Biomarin Pharmaceutical Inc., priority 2007, dated 2013):
Bridge positions count the residues as written; N and C are the ends. Peptide text beside a SMILES is read from it. * marks the point of attachment. MeO(CH2CH2O)23CH2CH2CO = COCCOCCOCCOCCOCCOCCOCCOCCOCCOCCOCCOCCOCCOCCOCCOCCOCCOCCOCCOCCOCCOCCOCCOCCC(=O)*; CH3O(CH2CH2O)11CH2CH2CO = COCCOCCOCCOCCOCCOCCOCCOCCOCCOCCOCCOCCC(=O)*

How the values were obtained:
Recombinant human NEP = Recombinant human NEP (Homo sapiens, UniProt P08473); assay: In vitro neutral endopeptidase (NEP) cleavage assay
In short: (§1)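 Recombinant human NEP (1 ug/mL final) incubated with 100 uM CNP variant in 0.1 M Tris, pH 7, at 37° C for various times, then quenched with EDTA (10 mM final) and heat. Samples reduced and analysed by HPLC and mass spectrometry. Half-life derived from loss of intact variant over time.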

[1] = biological target: neutral endopeptidase (NEP) (Homo sapiens, UniProt P08473); assay: as above; conditions: human, pH 7
In short: as §1

NPR-B [2] = biological target: T1, NPR-B (Mus musculus, UniProt Q6VVW5); assay: Stimulation of cGMP production in NIH3T3 cells; assay type: cell-based, Murine; conditions: NIH3T3 cells, normalized to cell number and cGMP production with 1 uM wtCNP22; for cGMP response relative to 1 uM CNP22 (%) at 0.01 µM: 10 nM natriuretic peptide, read-out: cGMP Response rel. to 1 uM CNP22, 10 nM; for cGMP response relative to 1 uM CNP22 (%) at 1 µM: 1 uM natriuretic peptide, read-out: cGMP Response rel. to 1 uM CNP22, 1 uM
T1 construct: Murine NIH3T3 cells express endogenously the CNP signaling receptor, NPR-B; endogenous in cells; host or cells: NIH3T3 (murine fibroblasts)
T1 sequence (Q6VVW5 17-1047): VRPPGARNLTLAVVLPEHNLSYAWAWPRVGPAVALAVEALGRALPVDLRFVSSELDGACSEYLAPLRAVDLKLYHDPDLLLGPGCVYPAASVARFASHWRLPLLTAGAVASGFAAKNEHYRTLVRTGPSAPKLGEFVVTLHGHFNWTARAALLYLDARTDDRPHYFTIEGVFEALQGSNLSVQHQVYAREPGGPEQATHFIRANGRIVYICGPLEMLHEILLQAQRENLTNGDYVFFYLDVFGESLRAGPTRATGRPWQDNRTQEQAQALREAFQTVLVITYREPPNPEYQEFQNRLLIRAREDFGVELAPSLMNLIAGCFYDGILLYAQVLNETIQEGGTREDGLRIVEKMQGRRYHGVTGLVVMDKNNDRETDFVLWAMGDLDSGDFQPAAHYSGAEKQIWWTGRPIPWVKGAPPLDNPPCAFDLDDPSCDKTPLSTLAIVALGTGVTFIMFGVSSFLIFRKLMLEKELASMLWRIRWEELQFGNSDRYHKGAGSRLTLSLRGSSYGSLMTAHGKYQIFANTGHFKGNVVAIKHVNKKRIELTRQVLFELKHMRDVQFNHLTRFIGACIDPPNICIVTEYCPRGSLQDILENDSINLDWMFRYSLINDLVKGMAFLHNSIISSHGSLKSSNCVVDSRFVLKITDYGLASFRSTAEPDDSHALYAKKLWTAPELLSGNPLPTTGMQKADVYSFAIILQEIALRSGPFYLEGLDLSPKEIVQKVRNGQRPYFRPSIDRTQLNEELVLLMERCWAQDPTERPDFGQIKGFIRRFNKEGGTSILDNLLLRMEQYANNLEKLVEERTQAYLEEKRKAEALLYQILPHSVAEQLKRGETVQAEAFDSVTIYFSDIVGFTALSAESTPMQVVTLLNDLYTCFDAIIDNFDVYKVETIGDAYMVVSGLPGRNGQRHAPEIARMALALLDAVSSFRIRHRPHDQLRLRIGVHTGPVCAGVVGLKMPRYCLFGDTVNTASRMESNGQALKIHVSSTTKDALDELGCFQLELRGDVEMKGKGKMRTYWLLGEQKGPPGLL

NPR-B [3] = biological target: NPR-B (Homo sapiens, UniProt P20594); conditions: read-out: affinity to NPR-B; cited from earlier work
[4] = Pharmacokinetics in normal rats after single i.v. or s.c. administration; conditions: male, rat
Protocol: Studies were conducted in normal rats to evaluate the pharmacokinetics (PK) profile of CNP22 and certain CNP variants and the time courses of plasma cGMP concentration after single intravenous (i.v.) or subcutaneous (s.c.) administration of the CNP peptides. Plasma CNP immunoreactivity was determined by using a competitive radioimmunoassay (RIA) with an anti-CNP rabbit polyclonal antibody. Plasma cGMP concentration was determined by RIA using a commercially available kit (YAMASA cyclic GMP Assay kit, YAMASA Corporation).
Normal male rats, 7-8 weeks of age, were used. Recombinant wild-type CNP22, CNP37 and PEO24-CNP27(Arg4) (i.e., PEO24-GANRR-CNP22(K4R)) were evaluated. A dosage of 20 nmol/kg of each CNP peptide as a solution in 5% mannitol was intravenously injected once into the tail, or a dosage of 50 nmol/kg of each CNP peptide as a solution in 0.03 mol/L acetic acid buffer solution, pH 4.0, containing 1% (w/v) benzyl alcohol and 10% (w/v) sucrose, was subcutaneously injected once into the back.
Plasma CNP immunoreactivity was determined by the competitive RIA using anti-CNP rabbit polyclonal antibody. Standard and QC samples were prepared. Fifty uL of the standard, QC and assay samples were added, respectively, to test tubes containing 50 uL of RIA buffer. Diluted anti-CNP rabbit polyclonal antibody (100 uL) was added to the tubes. All tubes were kept at 4° C. overnight. ^125I-[Tyr^0]-CNP22 solution (100 uL) and rabbit IgG solution (100 uL) were added and left at approximately 4° C. overnight. One milliliter of anti-rabbit IgG goat serum containing 10% polyethylene glycol was added, vortexed and left at approximately 4° C. for at least 1 hour, and then the insoluble fraction was precipitated by centrifugation. After aspiration of the supernatant, the amount of radiation (gamma line) in the sediment was measured by a gamma-counter. Each sample was measured in duplicate, and the mean was adopted as the value determined.
Plasma CNP immunoreactivity was employed for pharmacokinetics (PK) analysis. PK analysis was performed using WINNONLIN® Professional (Pharsight Corporation). The PK profiles of CNP22, CNP37 and PEO24-CNP27(Arg4) after i.v. administration were calculated using PK parameters such as concentration at 0 hour (C0: extrapolation, pmol/mL), total body clearance (CLtot: mL/min/kg), distribution volume at steady state (Vdss: mL/kg), area under the plasma concentration-time curve (AUC: pmol·min/mL), mean residence time (MRT: min), and half-life (T1/2: min). The PK profiles of the CNP peptides after s.c. administration were calculated using PK parameters such as maximum plasma concentration (Cmax: pmol/mL), time to reach Cmax (Tmax: min), area under the plasma concentration-time curve (AUC: pmol·min/mL), mean residence time (MRT: min), and half-life (T1/2: min).

NPR-C = NPR-C (Homo sapiens, UniProt P17342); conditions: read-out: affinity to NPR-C; cited from earlier work
in vivo = conditions: FVB/N, mouse, plasma, iv, 100 nmol/kg
Protocol: To determine CNP variants having increased NEP resistance, for efficacy study in FGFR3^ach mice (see Example 11), a pharmacokinetics (PK) study is carried out that compares the pharmacokinetics properties of CNP variants to wild-type CNP22. The FGFR3^ach mouse is a mutant mouse model of achondroplasia, containing a single transgene on a background of FVB mice.
Wild-type CNP22 or variant thereof is administered as a single intravenous (i.v.) dose in 6-week old wild-type FVB mice. Exemplary PK studies were conducted using wtCNP22. Six-week old FVB/N mice were intravenously administered wtCNP22 in a single dose at 100 nmol/kg.

neutral endopeptidase (NEP), sequence (P08473 whole entry): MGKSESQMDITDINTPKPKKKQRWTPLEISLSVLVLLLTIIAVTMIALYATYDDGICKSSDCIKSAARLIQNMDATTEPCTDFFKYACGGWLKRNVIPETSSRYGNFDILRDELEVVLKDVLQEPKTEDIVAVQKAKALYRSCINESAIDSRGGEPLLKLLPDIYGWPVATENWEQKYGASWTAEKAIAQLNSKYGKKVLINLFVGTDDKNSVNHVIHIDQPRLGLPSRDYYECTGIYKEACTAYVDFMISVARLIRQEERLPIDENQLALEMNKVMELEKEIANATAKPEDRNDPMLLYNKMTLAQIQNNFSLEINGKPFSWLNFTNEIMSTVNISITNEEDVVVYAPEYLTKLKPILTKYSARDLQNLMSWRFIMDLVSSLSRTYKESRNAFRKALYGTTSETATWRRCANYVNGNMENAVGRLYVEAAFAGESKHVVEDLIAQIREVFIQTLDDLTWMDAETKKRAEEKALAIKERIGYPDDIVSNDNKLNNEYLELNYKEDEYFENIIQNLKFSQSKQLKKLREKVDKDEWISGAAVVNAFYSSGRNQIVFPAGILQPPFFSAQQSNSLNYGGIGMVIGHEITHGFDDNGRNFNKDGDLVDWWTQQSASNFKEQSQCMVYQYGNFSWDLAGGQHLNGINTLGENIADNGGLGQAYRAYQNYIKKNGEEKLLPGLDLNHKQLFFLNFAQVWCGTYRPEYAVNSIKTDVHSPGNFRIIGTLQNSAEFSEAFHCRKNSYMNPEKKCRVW
Recombinant human NEP, sequence (P08473 whole entry): as above
NPR-B (Homo sapiens, UniProt P20594), sequence (P20594 23-1047, species assumed): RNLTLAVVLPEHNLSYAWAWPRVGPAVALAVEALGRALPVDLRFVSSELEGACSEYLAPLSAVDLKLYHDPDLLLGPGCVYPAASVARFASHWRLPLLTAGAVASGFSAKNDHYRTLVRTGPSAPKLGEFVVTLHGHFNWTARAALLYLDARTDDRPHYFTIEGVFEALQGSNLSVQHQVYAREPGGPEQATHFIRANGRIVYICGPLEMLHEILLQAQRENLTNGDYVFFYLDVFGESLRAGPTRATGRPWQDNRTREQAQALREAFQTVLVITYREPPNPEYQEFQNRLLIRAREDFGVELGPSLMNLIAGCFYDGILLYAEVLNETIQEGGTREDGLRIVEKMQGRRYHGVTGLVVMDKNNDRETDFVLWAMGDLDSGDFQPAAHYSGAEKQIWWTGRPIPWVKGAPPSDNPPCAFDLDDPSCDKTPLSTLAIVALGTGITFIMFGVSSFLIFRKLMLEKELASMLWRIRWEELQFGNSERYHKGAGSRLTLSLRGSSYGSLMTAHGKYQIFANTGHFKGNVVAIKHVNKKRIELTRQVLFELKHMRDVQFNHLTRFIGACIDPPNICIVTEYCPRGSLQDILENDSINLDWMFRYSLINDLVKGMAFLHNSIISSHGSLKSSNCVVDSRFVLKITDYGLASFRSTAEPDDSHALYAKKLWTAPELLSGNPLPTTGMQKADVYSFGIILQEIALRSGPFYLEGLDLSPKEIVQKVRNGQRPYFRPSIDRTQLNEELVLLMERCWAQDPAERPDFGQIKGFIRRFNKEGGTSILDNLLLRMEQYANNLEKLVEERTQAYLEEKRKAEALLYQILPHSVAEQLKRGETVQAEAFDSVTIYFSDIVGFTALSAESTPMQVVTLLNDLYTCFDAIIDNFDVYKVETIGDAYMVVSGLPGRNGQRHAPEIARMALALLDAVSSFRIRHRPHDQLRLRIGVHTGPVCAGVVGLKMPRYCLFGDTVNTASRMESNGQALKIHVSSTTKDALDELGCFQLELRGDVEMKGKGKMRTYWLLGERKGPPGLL
NPR-C, sequence (P17342 27-541, species assumed): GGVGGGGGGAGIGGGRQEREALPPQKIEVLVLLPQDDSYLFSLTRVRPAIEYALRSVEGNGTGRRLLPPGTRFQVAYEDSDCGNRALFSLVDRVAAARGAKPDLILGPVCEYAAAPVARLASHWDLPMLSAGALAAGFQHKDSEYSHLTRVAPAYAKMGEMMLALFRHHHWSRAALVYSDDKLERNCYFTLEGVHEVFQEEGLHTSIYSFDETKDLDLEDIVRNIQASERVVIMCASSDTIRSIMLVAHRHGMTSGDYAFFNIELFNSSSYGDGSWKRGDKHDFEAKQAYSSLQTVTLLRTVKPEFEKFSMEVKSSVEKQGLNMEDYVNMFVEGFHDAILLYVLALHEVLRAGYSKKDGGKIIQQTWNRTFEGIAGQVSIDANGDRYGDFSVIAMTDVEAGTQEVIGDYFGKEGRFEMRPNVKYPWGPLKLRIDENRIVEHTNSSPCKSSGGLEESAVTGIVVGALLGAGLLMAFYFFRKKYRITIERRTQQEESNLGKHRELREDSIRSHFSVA

Compound | sites hydrolyzed on NEP digestion (Recombinant human NEP; NEP digestion for […] in vitro) | half-life at 100 uM [1] | cGMP response relative to 1 uM CNP22 (%) at 0.01 µM (NPR-B [2]) | cGMP response relative to 1 uM CNP22 (%) at 1 µM (NPR-B [2]) | Kd (NPR-B [3]) | AUC ([4]; in vivo, iv, 20 nmol/kg) | half-life ([4]; in vivo, iv, 20 nmol/kg) | bioavailability ([4]; in vivo, sc, 50 nmol/kg) | half-life ([4]; in vivo, sc, 50 nmol/kg) | Kd (NPR-C) | half-life (in vivo) | resistance to NEP cleavage/degradation (in words) (Recombinant human NEP) | resistance to NEP cleavage/degradation (in words) (Recombinant human NEP; in vitro NEP cleavage assay, assay period 160 minutes) | half-life ([4]; iv, 20 nmol/kg) | bioavailability ([4]; sc, 50 nmol/kg) | half-life ([4]; sc, 50 nmol/kg)
CC[C@H](C)[C@@H]1NC(=O)[C@H](CCCNC(=N)N)NC(=O)[C@H](CC(=O)O)NC(=O)[C@H](CC(C)C)NC(=O)[C@H](CCCCN)NC(=O)[C@H](CC(C)C)NC(=O)CNC(=O)[C@H](Cc2ccccc2)NC(=O)[C@@H](NC(=O)CNC(=O)[C@H](CCCCN)NC(=O)[C@H](CO)NC(=O)[C@H](CC(C)C)NC(=O)CN)CSSC[C@@H](C(=O)O)NC(=O)CNC(=O)[C@H](CC(C)C)NC(=O)CNC(=O)[C@H](CO)NC(=O)[C@H](CCSC)NC(=O)[C@H](CO)NC(=O)CNC1=O [CNP22, CNP-22] | all possible sites were unexpectedly hydrolyzed | 80 min | 46 ± 10% | 100 ± 13% | 0.007 to 0.03 nM | 5.33 nM·h | 1.42 min | 19% | 10 min | 0.011 to 0.14 nM | 0.76 to 1.03 min |  |  |  |  | 
CC[C@H](C)[C@@H]1NC(=O)[C@H](CCCNC(=N)N)NC(=O)[C@H](CC(=O)O)NC(=O)[C@H](CC(C)C)NC(=O)[C@H](CCCCN)NC(=O)[C@H](CC(C)C)NC(=O)CNC(=O)[C@H](Cc2ccccc2)NC(=O)[C@@H](NC(=O)CNC(=O)[C@H](CCCNC(=N)N)NC(=O)[C@H](CO)NC(=O)[C@H](CC(C)C)NC(=O)CNC(=O)[C@H](CCCNC(=N)N)NC(=O)CCOCCOCCOCCOCCOCCOCCOCCOCCOCCOCCOCCOC)CSSC[C@@H](C(=O)O)NC(=O)CNC(=O)[C@H](CC(C)C)NC(=O)CNC(=O)[C@H](CO)NC(=O)[C@H](CCSC)NC(=O)[C@H](CO)NC(=O)CNC1=O [PEO12-R-CNP22, K4R] ({CH3O(CH2CH2O)11CH2CH2CO}-RGLSRGCFGLKLDRIGSMSGLGC-OH; disulfide 7-23) |  | ≥ 160 min | 23 ± 2% | 93 ± 19% |  |  |  |  |  |  |  | much more resistant to NEP degradation than CNP22 |  |  |  | 
CC[C@H](C)[C@@H]1NC(=O)[C@H](CCCNC(=N)N)NC(=O)[C@H](CC(=O)O)NC(=O)[C@H](CC(C)C)NC(=O)[C@H](CCCCN)NC(=O)[C@H](CC(C)C)NC(=O)CNC(=O)[C@H](Cc2ccccc2)NC(=O)[C@@H](NC(=O)CNC(=O)[C@H](CCCCN)NC(=O)[C@H](CO)NC(=O)[C@H](CC(C)C)NC(=O)CNC(=O)CCOCCOCCOCCOCCOCCOCCOCCOCCOCCOCCOCCOCCOCCOCCOCCOCCOCCOCCOCCOCCOCCOCCOCCOC)CSSC[C@@H](C(=O)O)NC(=O)CNC(=O)[C@H](CC(C)C)NC(=O)CNC(=O)[C@H](CO)NC(=O)[C@H](CCSC)NC(=O)[C@H](CO)NC(=O)CNC1=O [PEO24-CNP22] |  | > 160 min | 8 ± 5% | 46 ± 10% |  |  |  |  |  |  |  |  | resistant to NEP degradation over the assay period of 160 minutes |  |  | 
CC[C@H](C)[C@@H]1NC(=O)[C@H](CCCNC(=N)N)NC(=O)[C@H](CC(=O)O)NC(=O)[C@H](CC(C)C)NC(=O)[C@H](CCCCN)NC(=O)[C@H](CC(C)C)NC(=O)CNC(=O)[C@H](Cc2ccccc2)NC(=O)[C@@H](NC(=O)CNC(=O)[C@H](CCCNC(=N)N)NC(=O)[C@H](CO)NC(=O)[C@H](CC(C)C)NC(=O)CNC(=O)[C@H](CCCNC(=N)N)NC(=O)[C@H](CCCNC(=N)N)NC(=O)[C@H](CC(N)=O)NC(=O)[C@H](C)NC(=O)CNC(=O)CCOCCOCCOCCOCCOCCOCCOCCOCCOCCOCCOCCOCCOCCOCCOCCOCCOCCOCCOCCOCCOCCOCCOCCOC)CSSC[C@@H](C(=O)O)NC(=O)CNC(=O)[C@H](CC(C)C)NC(=O)CNC(=O)[C@H](CO)NC(=O)[C@H](CCSC)NC(=O)[C@H](CO)NC(=O)CNC1=O [PEO24-GANRR-CNP22, K4R (CNP27)] ({MeO(CH2CH2O)23CH2CH2CO}-GANRRGLSRGCFGLKLDRIGSMSGLGC-OH; disulfide 11-27) |  | > 160 min | 28 ± 9% | 82 ± 18% |  |  |  |  |  |  |  |  |  | 22.3 min | 60% | 78.1 min
